According to patent publication US11168081B2, “Alkaloid derivative having angiogenesis inhibitory effect, and pharmaceutical composition containing same” (SEOUL NATIONAL UNIVERSITY R&DB FOUNDATION, priority 2017, dated 2021):
pIC50: −log10 of the molar value.

Columns and labels:
HUVECs [1] = assay: HUVEC cell growth assay (MTT); type: cell-based, human; conditions: for pIC50: Homo sapiens, HUVEC, MTT, 24 hours, in the presence of VEGF (50 ng/mL)
Protocol: Human umbilical vascular endothelial cells (HUVECs) were obtained from the ATCC (Rockville, Md.) and cultured in EGM-2 (Lonza, Walkersville, Md.) supplemented with 10% FBS at 37° C. under a 5% CO2 atmosphere.
Cell growth was assessed by MTT assay. HUVECs (8×10^3 cells/well) were seeded onto a 96-well plate with EGM-2 medium supplemented with 10% FBS for 24 hours. The next day, the culture medium was removed, and the cells were then incubated with serum-free medium for 12 hours. Following serum starvation, the cells were cultured in fresh 2% FBS/EBM-2 medium containing various concentrations of the test compound for 24 hours in the presence of VEGF (50 ng/mL). After the incubation, an MTT solution was added, and the plate was incubated for additional 4 hours. The formazan product was dissolved in DMSO, and the absorbance was detected at 570 nm using a VersaMax ELISA microplate reader (Molecular Devices, Sunnyvale, Calif.).
(§1) The same experiment was carried out for sunitinib as a positive control.

HUVECs [2] = assay: In vitro tube formation assay; type: cell-based, human; conditions: for pIC50: Homo sapiens, HUVEC, HUVECs on Matrigel, 8 hours, VEGF-induced tube formation; for Selectivity Index (SI): ratio of the IC50 for HUVEC cell growth to the IC50 for tube formation
Protocol: Matrigel (70 μl/well) was coated onto a 96-well plate and polymerized for 30 minutes at 37° C. under a 5% CO2 atmosphere. HUVECs (1.5×10^4 cells/well) and various concentrations of the compound were seeded onto each well of the Matrigel-coated 96-well plate. The cells were then incubated for 8 hours at 37° C. under a 5% CO2 atmosphere. The formation of endothelial cell tubular structures was visualized under an inverted microscope and photographed (Olympus Optical Co. Ltd., Tokyo, Japan). The inhibition rate of tube formation was determined using the following equation. tube formation inhibition rate (%)=[1−(average tube numbersample−average tube numberVEGF(−))/(average tube numberVEGF(+)−average tube numberVEGF(−))]×100 [Equation 1]
The IC50 value was calculated using nonlinear regression analysis using TableCurve 2D v5.01 software (Systat Software Inc., Richmond, Calif., USA).
as §1
The endothelial cell tubular structure formation assay was performed in the same manner as in the Experimental Example 1.

[3] = system: human umbilical vascular endothelial cell (HUVEC); conditions: Korean Patent Application Publication No. 10-2012-0122705; cited from earlier work

Compound	pIC50 (HUVECs [1])	pIC50 (HUVECs [2])	Selectivity Index (SI) (HUVECs [2])	inhibition of human umbilical vascular endothelial cell (HUVEC) [3]	higher inhibitory effect on the cell growth of HUVECs (HUVECs [1]; sunitinib relative to compound (I-7)) [fold]
CCc1ccc2nc(C(c3ccc(OC)c(OC)c3)n3cc(CCN(C)C)nn3)sc2c1 (centres unmarked) [Compound I-2, 2-(1-((3,4-dimethoxyphenyl)(6-ethylbenzo[d]thiazol-2-yl)methyl)-1H-1,2,3-triazol-4-yl)-N,N-dimethylethan-1-amine]	4.03	5.08	11.3	–	–
CCCNCCc1cn(C(c2ccc(OC)c(OC)c2)c2nc3ccc(CC)cc3s2)nn1 (centres unmarked) [Compound I-3, N-(2-(1-((3,4-dimethoxyphenyl)(6-ethylbenzo[d]thiazol-2-yl)methyl)-1H-1,2,3-triazol-4-yl)ethyl)propan-1-amine]	4.41	5.86	27.8	–	–
CCc1ccc2nc(C(c3ccc(O)c(O)c3)n3cc(CCN(C)C)nn3)sc2c1 (centres unmarked) [Compound I-1, 4-((4-(2-(dimethylamino)ethyl)-1H-1,2,3-triazol-1-yl)(6-ethylbenzo[d]thiazol-2-yl)methyl)benzene-1,2-diol]	4.43	5.52	12.3	–	–
CCc1ccc2nc(C(c3ccc(OC)c(OC)c3)n3cc(CCCN4CCCCC4)nn3)sc2c1 (centres unmarked) [Compound I-16, 2-((3,4-dimethoxyphenyl)(4-(3-(piperidin-1-yl)propyl)-1H-1,2,3-triazol-1-yl)methyl)-6-ethylbenzo[d]thiazole]	4.52	5.64	13.38	–	–
CCc1ccc2nc(C(c3ccc(OC)c(OC)c3)n3cc(CCNC4CCCC4)nn3)sc2c1 (centres unmarked) [Compound I-4, N-(2-(1-((3,4-dimethoxyphenyl)(6-ethylbenzo[d]thiazol-2-yl)methyl)-1H-1,2,3-triazol-4-yl)ethyl)cyclopentanamine]	4.71	5.99	19.0	–	–
CCc1ccc2nc(C(c3ccc(OC)c(OC)c3)n3cc(CN4CCCCC4)nn3)sc2c1 (centres unmarked) [Compound I-15, 2-((3,4-dimethoxyphenyl)(4-(piperidin-1-ylmethyl)-1H-1,2,3-triazol-1-yl)methyl)-6-ethylbenzo[d]thiazole]	< 4.00	5.61	>40.65	–	–
CCc1ccc2nc(C(c3ccc(OC)c(OC)c3)n3cc(CCN4CCOCC4)nn3)sc2c1 (centres unmarked) [Compound I-6, 4-(2-(1-((3,4-dimethoxyphenyl)(6-ethylbenzo[d]thiazol-2-yl)methyl)-1H-1,2,3-triazol-4-yl)ethyl)morpholine]	< 4.00	5.41	–	–	–
CN(C)CCc1cn(C(c2ccc(O)c(O)c2)C2Oc3ccc(C=COS(=O)(=O)[O-])cc3O2)cn1.[Na+] (centres unmarked) [wondonin, Wondonin]	–	–	–	does not inhibit	–
CCN(CC)CCNC(=O)c1c(C)[nH]c(/C=C2\C(=O)Nc3ccc(F)cc32)c1C [Sunitinib, sunitinib, reference compound]	5.00	6.26	18.2	–	4.8
CCCN(CCC)CCc1cn(C(c2ccc(OC)c(OC)c2)c2nc3ccc(CC)cc3s2)cn1 (centres unmarked) [Compound I-11, N-(2-(1-((3,4-dimethoxyphenyl)(6-ethylbenzo[d]thiazol-2-yl)methyl)-1H-imidazol-4-yl)ethyl)-N-propylpropan-1-amine]	4.41	5.74	21.18	–	–
CCc1ccc2nc(C(c3ccc(OC)c(OC)c3)n3cnc(CCN4CCCCC4)c3)sc2c1 (centres unmarked) [Compound I-12, 2-((3,4-dimethoxyphenyl)(4-(2-(piperidin-1-yl)ethyl)-1H-imidazol-1-yl)methyl)-6-ethylbenzo[d]thiazole]	4.12	5.47	22.23	–	–
CCc1ccc2cc(C(c3ccc(O)c(O)c3)n3cc(CCN(C)C)nn3)oc2c1 (centres unmarked) [Compound I-8, 4-((4-(2-(dimethylamino)ethyl)-1H-1,2,3-triazol-1-yl)(6-ethylbenzofuran-2-yl)methyl)benzene-1,2-diol]	4.66	5.21	3.61	–	–
CCc1ccc2nc(C(c3ccc(OC)c(OC)c3)n3cnc(CCN4CCCC4)c3)sc2c1 (centres unmarked) [Compound I-14, 2-((3,4-dimethoxyphenyl)(4-(2-(pyrrolidin-1-yl)ethyl)-1H-imidazol-1-yl)methyl)-6-ethylbenzo[d]thiazole]	4.02	5.82	62.56	–	–
CCc1ccc2nc(C(c3ccc(OC)c(OC)c3)n3cnc(CCN(C)C)c3)sc2c1 (centres unmarked) [Compound I-10, 2-(1-((3,4-dimethoxyphenyl)(6-ethylbenzo[d]thiazol-2-yl)methyl)-1H-imidazol-4-yl)-N,N-dimethylethan-1-amine]	< 4.00	5.31	–	–	–
CCc1ccc2nc(C(c3ccc(OC)c(OC)c3)n3cc(CCN4CCCC4)nn3)sc2c1 (centres unmarked) [Compound I-5, 2-((3,4-dimethoxyphenyl)(4-(2-(pyrrolidin-1-yl)ethyl)-1H-1,2,3-triazol-1-yl)methyl)-6-ethylbenzo[d]thiazole]	4.15	5.55	24.8	–	–
CCc1ccc2nc(C(c3ccc(O)c(O)c3)n3cc(CCN(C)C)nn3)oc2c1 (centres unmarked) [Compound I-9, 4-((4-(2-(dimethylamino)ethyl)-1H-1,2,3-triazol-1-yl)(6-ethylbenzo[d]oxazol-2-yl)methyl)benzene-1,2-diol]	< 4.00	< 4.70	–	–	–
CCc1ccc2nc(C(c3ccc(OC)c(OC)c3)n3cnc(CCNC4CCCC4)c3)sc2c1 (centres unmarked) [Compound I-13, N-(2-(1-((3,4-dimethoxyphenyl)(6-ethylbenzo[d]thiazol-2-yl)methyl)-1H-imidazol-4-yl)ethyl)cyclopentanamine]	4.51	5.81	19.63	–	–
